# Assay results taken from the supplement of paper PMC10307832.
# Experiments:
# Assay in all cases: relative viability (nuclei count vs DMSO), 5 days (fraction); higher = more cells survive
# [1] = system: 201T
# In short: (§1)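 A single step with final 0.05% Triton X-100, 1% formaldehyde and 1 ug/ml Hoechst fixed the cells and stained nuclei 5 days after treatment. Lung cancer cell lines in 1536-well plates had been treated by pin tool the day after seeding with one drug alone or a fixed anchor-drug dose plus five library-drug doses (not always all listed) in √10 steps, and nuclei were counted on 4× images. Relative viability is the ratio of nuclei in treated wells to nuclei in vehicle wells, taken as the median of duplicate plates.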
# [2] = system: NCI-H2023
# In short: as §1
# [3] = system: NCI-H1792
# In short: as §1
# [4] = system: NCI-H2087
# In short: as §1
# [5] = system: NCI-H1915
# In short: as §1
# [6] = system: NCI-H441
# In short: as §1
# [7] = system: PC-3 [JPC-3]
# In short: as §1
# [8] = system: LCLC-97TM1
# In short: as §1
# [9] = system: NCI-H661
# In short: as §1
# [10] = system: NCI-H520
# In short: as §1
# [11] = system: BEN
# In short: as §1
# [12] = system: CAL-12T
# In short: as §1
# [13] = system: NCI-H1651
# In short: as §1
# [14] = system: LC-2-ad
# In short: as §1
# [15] = system: A-427
# In short: as §1
# [16] = system: NCI-H1650
# In short: as §1
# [17] = system: NCI-H650
# In short: as §1
# [18] = system: NCI-H727
# In short: as §1
# [19] = system: ABC-1
# In short: as §1
# [20] = system: NCI-H460
# In short: as §1
# [21] = system: H3255
# In short: as §1
# [22] = system: NCI-H1944
# In short: as §1
compound,measurement,setting,value
O=C(O)c1ccc(-c2c[nH]c3ncc(-c4ccccc4)cc23)cc1C1CCCC1 + CC(=O)c1c(C)c2cnc(Nc3ccc(N4CCNCC4)cn3)nc2n(C2CCCC2)c1=O [Palbociclib] (partner 0.5 µM),relative viability,[1]; first compound 0.04 µM,0.353
same,relative viability,[1]; first compound 0.1265 µM,0.364
same,relative viability,[1]; first compound 0.4 µM,0.341
same,relative viability,[1]; first compound 1.265 µM,0.364
same,relative viability,[2]; first compound 0.04 µM,0.407
same,relative viability,[2]; first compound 0.1265 µM,0.394
same,relative viability,[2]; first compound 0.4 µM,0.358
same,relative viability,[2]; first compound 1.265 µM,0.312
same,relative viability,[3]; first compound 0.1265 µM,0.681
same,relative viability,[3]; first compound 0.4 µM,0.657
same,relative viability,[3]; first compound 1.265 µM,0.691
same,relative viability,[4]; first compound 0.04 µM,0.214
same,relative viability,[4]; first compound 0.1265 µM,0.267
same,relative viability,[4]; first compound 0.4 µM,0.214
same,relative viability,[4]; first compound 1.265 µM,0.248
same,relative viability,[5]; first compound 0.04 µM,0.553
same,relative viability,[5]; first compound 0.1265 µM,0.527
same,relative viability,[5]; first compound 0.4 µM,0.452
same,relative viability,[5]; first compound 1.265 µM,0.428
same,relative viability,[6]; first compound 0.04 µM,0.248
same,relative viability,[6]; first compound 0.1265 µM,0.232
same,relative viability,[6]; first compound 0.4 µM,0.223
same,relative viability,[6]; first compound 1.265 µM,0.22
same,relative viability,[7]; first compound 0.04 µM,0.534
same,relative viability,[7]; first compound 0.1265 µM,0.553
same,relative viability,[7]; first compound 0.4 µM,0.538
same,relative viability,[7]; first compound 1.265 µM,0.499
same,relative viability,[8]; first compound 0.04 µM,0.267
same,relative viability,[8]; first compound 0.1265 µM,0.222
same,relative viability,[8]; first compound 0.4 µM,0.187
same,relative viability,[8]; first compound 1.265 µM,0.217
same,relative viability,[9]; first compound 0.04 µM,0.414
same,relative viability,[9]; first compound 0.1265 µM,0.411
same,relative viability,[9]; first compound 0.4 µM,0.406
same,relative viability,[9]; first compound 1.265 µM,0.389
same,relative viability,[10]; first compound 0.04 µM,0.192
same,relative viability,[10]; first compound 0.1265 µM,0.217
same,relative viability,[10]; first compound 0.4 µM,0.226
same,relative viability,[10]; first compound 1.265 µM,0.182
same,relative viability,[11]; first compound 0.04 µM,0.459
same,relative viability,[11]; first compound 0.1265 µM,0.422
same,relative viability,[11]; first compound 0.4 µM,0.455
same,relative viability,[11]; first compound 1.265 µM,0.454
same,relative viability,[12]; first compound 0.04 µM,0.496
same,relative viability,[12]; first compound 0.1265 µM,0.442
same,relative viability,[12]; first compound 0.4 µM,0.499
same,relative viability,[12]; first compound 1.265 µM,0.384
same,relative viability,[13]; first compound 0.04 µM,0.534
same,relative viability,[13]; first compound 0.1265 µM,0.524
same,relative viability,[13]; first compound 0.4 µM,0.514
same,relative viability,[13]; first compound 1.265 µM,0.475
same,relative viability,[14]; first compound 0.04 µM,0.425
same,relative viability,[14]; first compound 0.1265 µM,0.541
same,relative viability,[14]; first compound 0.4 µM,0.489
same,relative viability,[14]; first compound 1.265 µM,0.42
same,relative viability,[15]; first compound 0.04 µM,0.536
same,relative viability,[15]; first compound 0.1265 µM,0.526
same,relative viability,[15]; first compound 0.4 µM,0.485
same,relative viability,[15]; first compound 1.265 µM,0.48
same,relative viability,[16]; first compound 0.04 µM,0.34
same,relative viability,[16]; first compound 0.1265 µM,0.285
same,relative viability,[16]; first compound 0.4 µM,0.321
same,relative viability,[16]; first compound 1.265 µM,0.193
same,relative viability,[17]; first compound 0.04 µM,0.32
same,relative viability,[17]; first compound 0.1265 µM,0.344
same,relative viability,[17]; first compound 0.4 µM,0.312
same,relative viability,[17]; first compound 1.265 µM,0.279
same,relative viability,[18]; first compound 0.04 µM,0.676
same,relative viability,[18]; first compound 0.1265 µM,0.662
same,relative viability,[18]; first compound 0.4 µM,0.652
same,relative viability,[18]; first compound 1.265 µM,0.638
same,relative viability,[19]; first compound 0.04 µM,0.674
same,relative viability,[19]; first compound 0.1265 µM,0.892
same,relative viability,[19]; first compound 0.4 µM,0.551
same,relative viability,[19]; first compound 1.265 µM,0.742
same,relative viability,[20]; first compound 0.04 µM,0.274
same,relative viability,[20]; first compound 0.1265 µM,0.203
same,relative viability,[20]; first compound 0.4 µM,0.23
same,relative viability,[20]; first compound 1.265 µM,0.146
same,relative viability,[21]; first compound 0.04 µM,0.303
same,relative viability,[21]; first compound 0.1265 µM,0.325
same,relative viability,[21]; first compound 0.4 µM,0.286
same,relative viability,[21]; first compound 1.265 µM,0.312
same,relative viability,[22]; first compound 0.04 µM,0.349
same,relative viability,[22]; first compound 0.1265 µM,0.376
same,relative viability,[22]; first compound 0.4 µM,0.315
same,relative viability,[22]; first compound 1.265 µM,0.314
